These results are taken from publication PMC7265341, “Quantifying CDK inhibitor selectivity in live cells” (Nature Communications, 2020).

The target of one assay is T1, CDK11A/Cyclin L2 (Homo sapiens, UniProt Q9UQ88).
T1 sequence (Q9UQ88 1-783): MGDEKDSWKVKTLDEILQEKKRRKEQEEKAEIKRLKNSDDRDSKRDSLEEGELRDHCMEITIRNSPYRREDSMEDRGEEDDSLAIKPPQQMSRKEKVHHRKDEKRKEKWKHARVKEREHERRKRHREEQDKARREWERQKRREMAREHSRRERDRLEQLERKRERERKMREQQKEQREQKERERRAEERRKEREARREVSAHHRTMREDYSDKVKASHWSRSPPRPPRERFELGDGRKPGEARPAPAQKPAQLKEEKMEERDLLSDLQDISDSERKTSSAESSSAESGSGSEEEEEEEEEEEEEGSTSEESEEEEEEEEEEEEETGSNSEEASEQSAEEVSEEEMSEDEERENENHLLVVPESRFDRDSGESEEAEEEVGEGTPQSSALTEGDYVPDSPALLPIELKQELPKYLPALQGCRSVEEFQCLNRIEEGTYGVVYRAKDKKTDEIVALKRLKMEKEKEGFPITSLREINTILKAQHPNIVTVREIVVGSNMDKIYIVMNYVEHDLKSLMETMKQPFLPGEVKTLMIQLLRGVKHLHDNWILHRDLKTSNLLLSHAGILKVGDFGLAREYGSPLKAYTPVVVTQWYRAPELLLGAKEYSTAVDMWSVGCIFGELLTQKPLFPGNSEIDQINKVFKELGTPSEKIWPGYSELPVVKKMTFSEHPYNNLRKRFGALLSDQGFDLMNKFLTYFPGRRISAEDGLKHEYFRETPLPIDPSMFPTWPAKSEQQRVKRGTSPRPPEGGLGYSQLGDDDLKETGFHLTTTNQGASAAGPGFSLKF
The experiment in a line: NanoBRET live-cell target engagement, CDK11A-NanoLuc/Cyclin L2 in HEK-293. The format is binding. Conditions: for IC50: read-out: IC50. On the technique in general: In BRET a luciferase serves as donor, and the signal depends on an acceptor being close.

A further assay deals with phospho-Rb (Ser 807/811). The experiment in a line: Endogenous phospho-Rb (Ser 807/811) Lumit immunoassay in MCF7 cells.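 As to all read-outs here: Serum-starved cells exposed to compounds for 24 h with 25 ng/mL hEGF, then lysed, phospho-Rb detected by split-luciferase antibody pair luminescence.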 The format is cell-based, human. Particulars: for Normalized pRB (%): Panel E.
Setting [1] is: CDK11a/L2, 10µM, average of replicates, read-out: Inhibition at 10µM (%) Average.
Where [2] appears, read: CDK11a/L2, 10µM, read-out: Inhibition at 10µM (%) Replicate 1.
Setting [3] is: CDK11a/L2, 10µM, read-out: Inhibition at 10µM (%) Replicate 2.
The mark [4] stands for this setting: CDK11a/L2, 10µM, average of replicates.
Where [5] appears, read: CDK11a/L2, average, read-out: Inhibition at 10µM (%).
Setting [6] is: CDK11a/L2, experiment 1, read-out: Inhibition at 10µM (%).
The mark [7] stands for this setting: CDK11a/L2, experiment 2, read-out: Inhibition at 10µM (%).

“And” between values parts separate entries of the source, which are not always exact repeats. Identical values can stand only once. Like-named read-outs stand apart in the source and are kept apart here.

Usually Inhibition stands for the drop in the measured response relative to a control, in per cent. As usually defined, the IC50 is the concentration that inhibits the measured activity by half.

Turning to `C[C@H]1CC[C@H](n2c3cnccc3c3cnc(Nc4ccc5c(n4)CCN(C(=O)CO)C5)nc32)CC1` [AMG 925], the inhibition at 10 µM was 6.7% on CDK11A/Cyclin L2 (read-out: Inhibition at 10µM (%) Average, CDK11a/L2, 10µM, average of replicates); -0.9% at CDK11A/Cyclin L2 (read-out: Inhibition at 10µM (%) Replicate 1, CDK11a/L2, 10µM); 14.4% on CDK11A/Cyclin L2 (read-out: Inhibition at 10µM (%) Replicate 2, CDK11a/L2, 10µM).

On to `Cc1ncc(-c2ccnc(Nc3ccc(S(C)(=O)=O)cc3)n2)n1C(C)C` [AZD5438], for which the inhibition at 10 µM stood at 68.9% on CDK11A/Cyclin L2 (setting [1]), 67.5% on CDK11A/Cyclin L2 (setting [2]) and 70.3% on CDK11A/Cyclin L2 (setting [3]).

`CNC1CCN(C(=O)c2ccc(Nc3ncc(F)c(-c4cnc(C)n4C(C)C)n3)cc2)C1` (stereo not drawn) [AZD5597]: on CDK11A/Cyclin L2 (CDK11a/L2, 10µM), the “Inhibition at 10µM (%) Replicate 1” value came out at 89.7% and the “Inhibition at 10µM (%) Replicate 2” value is recorded as 90.1%. In addition, the “Inhibition at 10µM (%) Average” value on CDK11A/Cyclin L2 (setting [4]) worked out at 89.9%.

On to `CCN1CCN(Cc2ccc(Nc3ncc(F)c(-c4cc(F)c5nc(C)n(C(C)C)c5c4)n3)nc2)CC1` [Abemaciclib], for which the inhibition at 10 µM on CDK11A/Cyclin L2 (setting [1]) worked out at 21.8%; at CDK11A/Cyclin L2 (setting [2]), 19.9%; at CDK11A/Cyclin L2 (setting [3]), 23.7%. The compound also showed an IC50 in the assay on phospho-Rb (Ser 807/811) (Homo sapiens, MCF7 cells, Panel F pIC50 correlations) of 45.7 nM. Further, the “Normalized pRB (%)” value was 13.6% and 13.3% with phospho-Rb (Ser 807/811) (LOG10([Compound]) (LOG10(µM)) 0.0457575); 24.5% and 23.6% and 23.2% in the assay with phospho-Rb (Ser 807/811) (LOG10([Compound]) (LOG10(µM)) 0.522879); 20.9% and 22.5% and 21.5% in the assay with phospho-Rb (Ser 807/811) (LOG10([Compound]) (LOG10(µM)) 1); 18% and 19.1% and 18.8% in the assay on phospho-Rb (Ser 807/811) (LOG10([Compound]) (LOG10(µM)) -0.431364); 36.6% and 37.6% and 36.8% with phospho-Rb (Ser 807/811) (LOG10([Compound]) (LOG10(µM)) -0.908485); 61.8% and 62.2% and 61% with phospho-Rb (Ser 807/811) (LOG10([Compound]) (LOG10(µM)) -1.38561). In addition, the “Normalized pRB (%)” value in the assay with phospho-Rb (Ser 807/811) (LOG10([Compound]) (LOG10(µM)) -1.86273) is 80.7% and 77.6% and 81.4%; in the assay on phospho-Rb (Ser 807/811) (LOG10([Compound]) (LOG10(µM)) -2.33985) it was 90.7% and 95% and 86.6%; with phospho-Rb (Ser 807/811) (LOG10([Compound]) (LOG10(µM)) -2.81697) it was 91.8% and 94.4% and 95%; in the assay with phospho-Rb (Ser 807/811) (LOG10([Compound]) (LOG10(µM)) -3.29409), 93.5% and 103% and 101.1%.

For `CC(C)c1cnn2c(NCc3ccccc3)cc(N[C@@H](CO)[C@H](O)CO)nc12` [BS-194], on CDK11A/Cyclin L2 (CDK11a/L2, 10µM), the “Inhibition at 10µM (%) Replicate 1” value stood at 16.5% and the “Inhibition at 10µM (%) Replicate 2” value is 18.5%. Further, the “Inhibition at 10µM (%) Average” value at CDK11A/Cyclin L2 (setting [4]) was determined as 17.5%.

In the case of `COc1ccc(F)cc1-c1cc(NC(=O)C2CCCNC2)ncc1Cl` (stereo not drawn) [CDK inhibitor 2], the IC50 came out at 20 ± 10 nM on CDK11A/Cyclin L2 (CDK11a/L2, average (± SEM where n=3)); 8.3 nM on CDK11A/Cyclin L2 (CDK11a/L2, experiment 1); 17 nM on CDK11A/Cyclin L2 (CDK11a/L2, experiment 2); 47 nM at CDK11A/Cyclin L2 (CDK11a/L2, experiment 3). Besides, the inhibition at 10 µM at CDK11A/Cyclin L2 (setting [5]) worked out at 95.4%; at CDK11A/Cyclin L2 (setting [6]), 94.8%; at CDK11A/Cyclin L2 (setting [7]), 95.9%.

For the compound `CCn1cnc2c(Nc3cccc(Cl)c3)nc(N[C@@H]3CCCC[C@@H]3N)nc21` [CGP74514A], the “Inhibition at 10µM (%)” value came out at 29.9% at CDK11A/Cyclin L2 (CDK11a/L2, average); 16.5% at CDK11A/Cyclin L2 (CDK11a/L2, experiment 1); 43.3% at CDK11A/Cyclin L2 (CDK11a/L2, experiment 2).

Consider `CC(C)c1cnn2c(NCc3ccccc3)cc(NC[C@H]3CCNC[C@@H]3O)nc12` [CT7001], for which the inhibition at 10 µM stood at 43.5% on CDK11A/Cyclin L2 (setting [5]), 43.2% at CDK11A/Cyclin L2 (setting [6]) and 43.8% on CDK11A/Cyclin L2 (setting [7]).

For the compound `CN1CC[C@H](c2c(O)cc(O)c3c(=O)cc(-c4ccccc4Cl)oc23)[C@H](O)C1` [Flavopiridol], the inhibition at 10 µM worked out at 27.7% on CDK11A/Cyclin L2 (setting [5]), 30.2% on CDK11A/Cyclin L2 (setting [6]) and 25.2% at CDK11A/Cyclin L2 (setting [7]).

Take `CN1CCN(Cc2ccc(NC(=O)Nc3ccc(Oc4ccnc(N)n4)cc3)cc2C(F)(F)F)CC1` [K03861]: the results for the inhibition at 10 µM on CDK11A/Cyclin L2 (setting [5]), at CDK11A/Cyclin L2 (setting [6]) and at CDK11A/Cyclin L2 (setting [7]) were 14.5%, 19.2% and 9.8%, respectively.

For `COc1ccccc1-c1cc(Nc2cccc(CS(N)(=O)=O)c2)ncn1` [LDC000067], the inhibition at 10 µM on CDK11A/Cyclin L2 (read-out: Inhibition at 10µM (%), CDK11a/L2, average) worked out at 7.5%; at CDK11A/Cyclin L2 (read-out: Inhibition at 10µM (%), CDK11a/L2, experiment 1), 4.3%; at CDK11A/Cyclin L2 (read-out: Inhibition at 10µM (%), CDK11a/L2, experiment 2), 10.7%.
